What was measured:
[1] = tested on: T. cruzi trypomastigotes mitochondrial transmembrane potential (ΔΨm); experiment: Mitochondrial membrane potential assessment by JC-1; format: cell-based, Trypanosoma cruzi; conditions: 1 μM, 2 hours, Fig 5A bottom panel; FCCP 100 μM positive control
Method: For the determination of mitochondrial membrane potential by JC-1, we adapted the method described by Cossariza and Savioli (2001). In total, 5 x 10^6 trypomastigotes were seeded in 24-well plates in 1 mL of RPMI medium without FBS. The parasites were exposed to 0.1 or 1 μM of the different TPP^+ derivatives for 2 hours; alternatively, the parasites were exposed to 100 μM FCCP (Sigma Aldrich, USA) for 15 min as a positive control of the uncoupling of mitochondrial respiration. The cells were then washed with 500 μL of PBS and centrifuged at 1500 x g for 5 min. The parasites were then resuspended in 1 mL of PBS at 37°C. JC-1 (Molecular Probes, Applied Biosytems, USA) 1 mg/mL in DMSO was added at a final concentration of 5 μg/mL, and the mixtures were incubated for 15 min at 37°C in the dark. Next, the samples were centrifuged at 1500 x g for 5 min, and the supernatants, which contained unincorporated JC-1, were discarded. The pellet was suspended in PBS (1 mL), and fluorescence was measured using a FACSAria-III flow cytometer (BD Biosciences, USA). We used 488 nm as the excitation wavelength; the emission of JC-1 monomers was detected using the FITC filter (530/30), and the JC-1 aggregates were detected using the PE filter (585/42). Each measurement involved 5,000 events. The data were analyzed using FACSDiva 6.1 software.

[2] = tested on: T. cruzi in infected RAW 264.7 cells; experiment: Parasite DNA load by real-time PCR in infected RAW cells; format: cell-based, Trypanosoma cruzi; conditions: for parasite's DNA load: 1 μM, qPCR, 48 hours; for parasite load (qPCR): infected RAW cells, 48 hours after treatment, Fig 4
Description: DNA from infected RAW cells (murine macrophages, ATCC number: TIB-71) was isolated using Wizard Genomic DNA Purification Kit (Promega, USA) following the manufacturer’s instructions. DNA was quantified through […] absorbance measurements using a Varioskan spectrophotometer (Thermo Scientific, USA). To evaluate the parasite DNA load, we used a TaqMan-Duplex system, as described previously. To amplify an 84-bp T. cruzi satellite DNA sequence, we used the following primers: TcSt 4-Fw (5’-[…]-3’) and TcSt 1-Rev (5’-[…]-3’) and the TcSt-1 probe (5’-FAM-[…]-BHQ-1-3’). As an endogenous control, we used the Mus-F (5’-[…]-3’) and Mus-R (5’-[…]-3’) primers coupled with the MM-1 probe (5’-HEX-AAAGCATCTGCCTCCG-BHQ-1-3’) to amplify a 67-bp Mus musculus GAPDH sequence. The primers and probes were designed using Primer Express 3.0 Software (Applied Biosystems, USA) and manufactured by Integrated DNA Technologies (Coralville, IA, USA). The PCR reactions were performed using an ABI7300 real-time thermocycler (Applied Biosystems, USA). […] ROX was used as a reference dye. For both TaqMan assays, the thermal cycle consisted of a polymerase activation step carried out at 95°C for 10 min (one cycle) and a two-step amplification phase: 95°C for 15 s and 55°C for 45 s (40 cycles). Fluorescence was measured at the end of each amplification cycle. The data were analyzed using 7300 System SDS software with the SDS relative quantitation plug-in (Applied Biosystems, USA). All of the data were analyzed by the 2^-∆∆CT method, comparing the CTs of the T. cruzi gene versus that of GAPDH as well as comparing all of the samples with the controls. The parasite load is expressed as the relative DNA load compared with the controls.

[3] = tested on: T. cruzi trypomastigotes (Y strain); format: cell-based; conditions: for markers of cell death (phosphatidylserine exposure and propidium iodide permeabilization): 1 μM, 24 hours; for number of viable cells (without annexin-V or PI positivity): 24 hours, 0.1, 0.5 or 1 μM, Fig 2B
Method: For these assays, 10^7 trypomastigotes (Y strain) were exposed to […] for 24 h in RPMI at 37°C and 5% CO2. The cells were then washed in phosphate-buffered saline (PBS), resuspended, and incubated with propidium iodide (PI) and Annexin-V labeled with Alexa Fluor 488. The incubation was performed using Alexa Fluor 488 Annexin V/Dead Cell Apoptosis Kit (Molecular Probes, USA) following the manufacturer’s instructions. The fluorescence of the samples was measured using a FACSAria-III flow cytometer (BD biosciences, USA) with 530/30 and 630/22 filters to detect Annexin-V and PI, respectively. For each sample, 5,000 events were recorded, and the data were analyzed using FACSDiva 6.1 software.

VERO cells = experiment: MTT reduction viability assay on VERO cells; format: cell-based; conditions: Chlorocebus sabaeus, 24 hours exposure, mean ± SD
Method: The effect of the drugs on parasite viability was evaluated using the tetrazolium salt (MTT) reduction assay. […] Alternatively, VERO cells attached to the surface of 96-well plates were washed and incubated with MTT (5 mg/mL). After incubation for 4 h at 37°C, the generated formazan crystals were dissolved with 100 μL of 10% (w/v) sodium dodecyl sulfate (SDS) in 0.01 M HCl. The plates were then incubated overnight at 37°C, and the optical density (OD) was determined using a microplate reader (Labsystems Multiskan MS, Finland) at 570 nm. Under these conditions, the OD is directly proportional to the number of viable cells in each well [33, 34]. All of the experiments were performed at least three times. […] The data from each experiment were plotted using the formazan absorbance versus the log of the concentration, and the plot was fitted to the dose-response (four-parameters) equation using the software Graph Pad Prism V5.0, obtaining the EC50 value per drug and per experiment. The data are expressed as the mean ± DS of the EC50s obtained from each experiment.

| Compound | JC-1 red fluorescence (aggregates) [1] | parasite's DNA load [2] | parasite load (qPCR) [2] | markers of cell death (phosphatidylserine exposure and propidium iodide permeabilization) [3] | number of viable cells (without annexin-V or PI positivity) [3] | EC50 (VERO cells) |
| --- | --- | --- | --- | --- | --- | --- |
| O=C(OCCCCCCCCCC[P+](c1ccccc1)(c1ccccc1)c1ccccc1)c1cc(O)c(O)c(O)c1.[Br-] [TPP^+-C10, triphenyl(10-((3,4,5-trihydroxybenzoyl)oxy)-decyl) phosphonium bromide] | induced mitochondrial changes, though to a lower extent than FCCP | 10 % of control measurements | reduced the parasite load in a concentration-dependent manner | induced markers of cell death | significant decrease in the number of viable cells at concentrations of 0.5 and 1 μM | 11.3 ± 0.1 µM |
| O=C(OCCCCCCCCCCCC[P+](c1ccccc1)(c1ccccc1)c1ccccc1)c1cc(O)c(O)c(O)c1.[Br-] [TPP^+-C12, triphenyl(12-((3,4,5-trihydroxybenzoyl)oxy)-dodecyl) phosphonium bromide] | induced mitochondrial changes, though to a lower extent than FCCP | 13 % of control measurements | reduced the parasite load in a concentration-dependent manner | induced markers of cell death | significant decrease in the number of viable cells at concentrations of 0.5 and 1 μM | 10.9 ± 2.4 µM |
